The text below walks through data of publication PMC8592510 (CPT: Pharmacometrics & Systems Pharmacology, 2021).

The conditions of data set [1]: cited from earlier work.
Data set [2] deals with CYP3A. As to conditions: cited from earlier work.
The format of data set [3] is in vivo, human. As to conditions: covariate analysis, allometric scaling principles.
For data set [4] the following is noted: cited from earlier work. This is another data set of the same source.
Data set [5] is described as follows: Logistic regression exposure-safety analyses. As to conditions: alectinib 300 or 600 mg b.i.d.
Data set [6] can be described thus: Bayesian feedback population PK analyses of phase III data. The format is in vivo. As to conditions: human, plasma, oral.
For data set [7] the following is noted: cited from earlier work. This is another data set of the same source.

By half-life is commonly meant the time needed for the level to fall by half in the phase considered. As to `CCc1cc2c(cc1N1CCC(N3CCOCC3)CC1)C(C)(C)c1[nH]c3cc(C#N)ccc3c1C2=O` [alectinib], the Lipophilicity result in data set [1] was “lipophilic”. Moreover, in data set [2], the “Enzyme involved in metabolism” value is reported as “CYP3A is the main enzyme” and the “First-pass metabolism by cytochrome P450 (CYP) 3A” value is reported as “limited”. In addition, the “Body weight effect on clearance and volume” value in data set [3] is reported as “significant body weight effect”. The “Safety profile compared with crizotinib” value in data set [4] (J-ALEX, ALEX and ALESIA) is “favorable safety profile compared with crizotinib”. Further, the “Effect of Caverage on severity of the first event for SAEs or Grade ≥3 AEs” value in data set [5] is “no apparent effect”. Besides, in data set [5] (J-ALEX, ALEX, ALESIA), the “Relationship between Caverage and first occurrence of Grade ≥3 AEs” value was “no significant relationship”; the “Relationship between combined alectinib and M4 molar concentration (Caverage) and first occurrence of SAEs” value is “no significant relationship”. The half-life in data set [6] is 34 h. Moreover, in data set [7], the Blood-brain barrier penetration result is on record as “can penetrate the blood–brain barrier”.
As to `C[C@@H](Oc1cc(-c2cnn(C3CCNCC3)c2)cnc1N)c1c(Cl)ccc(F)c1Cl` [crizotinib], the “Frequency of Grade ≥3 AEs and SAEs, crizotinib versus alectinib” value in data set [4] (ALEX study) is recorded as “more frequent”.
